Reference: patent US20040048900A1, “Nicotine and/or nicotine agonists for the treatment of general anesthetic effects and side effects” (priority 2002, published 2004)

Experiments:
[1] = system: norepinephrine levels in brain and spinal cord; test: HPLC of norepinephrine, 5-HT, dopamine and metabolites after DSP-4; assay type: in vivo, mice; conditions: DSP4-treated n = 2
Text: (§1) How could nicotinic inhibition cause hyperalgesia? Nicotine is thought to exert its analgesic action by increasing the release of norepinephrine, serotonin and acetylcholine onto the relay neurons in the dorsal horn of the spinal cord (Rao, 1996; and Reuter, 2000). Isoflurane might reduce pain threshold by inhibiting nicotinic acetylcholine receptors tonically active in potentiating the release of norepinephrine, serotonin and/or acetylcholine. To test the role of the α-adrenergic system, mice were treated systemically with the adrenergic neurotoxin DSP-4 to deplete norepinephrine levels (Jonsson, 1981). The DSP-4 mice 14 days after treatment were tested for HPWL in the presence of isoflurane alone or isoflurane with nicotine pretreatment (see methods).
The HPLC procedures were conducted according to the methods described by Underwood et al. (Underwood, 1999).

mice [2] = test: Nicotine-induced prostration, duration of mecamylamine blockade
Description: (§2) The duration of mecamylamine's action was tested with two control experiments. First, 5 mice were injected with mecamylamine 5 mg/kg IP or saline. These mice were then tested at 1-hour intervals with nicotine 1 mg/kg IP. […] Mecamylamine plasma concentration was measured in 5 female mice, 1 hour after I.P. injection using a combination of Gas Chromatography and Mass Spectroscopy described by Jacob et al. (Jacob, 2000).

[3] = target: T1, human α4β2 nAChRs expressed in Xenopus oocytes (Homo sapiens, UniProt P17787+P43681); test: Two-microelectrode voltage clamp of ACh-activated currents in Xenopus oocytes; assay type: cell-based
T1 construct: expressed in transfected cells; host or cells: Xenopus laevis oocytes injected with cRNA (1:1 α4 to β2)
Description: The human α4 and β2 type nAChRs were in a pSP64 expression vector. Standard techniques were used to linearize the vectors and use them as templates to make cRNA using SP6 as the polymerase. The human nicotinic clones were a gift from Dr. Jon Lindstrom, Ph.D. (Department of Neuroscience, University of Pennsylvania, Philadelphia, Pa.).
Xenopus laevis oocytes were removed from the females and defolliculated with collagenase. After the oocytes rested for 24 hours in L-15 oocyte medium, about 10 ng of a 1:1 ratio of α4 to β2 cRNA were injected into individual oocytes. A manual injector was used for this process (Nanoject; Drummond Scientific, Broomall, Pa.). The oocytes were incubated for 2-5 days in ND-96 medium (NaCl 96 mM, KCl 2 mM, MgCl2 1 mM, CaCl2 H2O 1.8 mM, HEPES 5 mM, Na-pyruvate 2.5 mM, theophylline 0.5 mM, and 10mg/L of gentamicin, adjusted to pH 7.5).
Whole oocytes were used to record currents using a Gene-Clamp 500 two-microelectrode voltage-clamp amplifier with an active ground (Axon Instruments, Inc., Foster, Cailf.). The recording electrodes were pulled from glass capillary tubing (Drummond, Broomall, Pa.) to obtain a resistance between 1 and 5 MΩ and filled with 3M KCl. Ba^2 Ringer's solution was used as the extracellular solution in order to avoid current amplification by calcium activated chloride currents (115 mM NaCl, 2.5 mM KCl, 1.8 mM BaCl2, 10 mM HEPES, 1 μM atropine, pH 7.4). Atropine was included to avoid activation of intrinsic muscarinic receptors. Experiments were performed at room temperature. Isoflurane was prepared from a saturated solution by serial dilution. Concentrations were verified by gas chromatography.
Oocytes were tested at a membrane potential of −60 mV. Bolus application of the agonist +/− indicated antagonist(s) was applied at a rate of 4 ml/min for a 2 second application.
Antagonists were pre-applied for 2 minutes prior to activation. Concentration response curves were made from the percent change in peak current from ACh activation in the presence of antagonist(s), compared to ACh alone. As the ACh concentration at central neuronal nAChRs is unknown, 1 mM ACh (saturating) was used to detect inhibition by isoflurane and mecamylamine experiments with mecamylamine. ACh 2 μM was used to detect potentiation by nicotine. Currents were measured in 5-8 cells for each data point. Clampex 7 (Axon instruments, Foster City, Calif.) was used for data acquisition.
Microcal Origins 5.0 (Microcal, Northampton, Mass.) was used for statistical calculations and graphical presentation. The in vitro data were fit to a modified Hill equation, y=100/(1+(x/IC50)^n), where IC50 is the concentration of drug at which of 50% of the response is inhibited and n is the Hill coefficient.

[4] = system: ^3H-norepinephrine release from female mouse lumbar spinal cord slice; test: 3H-norepinephrine release from superfused spinal cord slice; conditions: 1 mM nicotine in perfusion buffer, p<0.02
Description: Spinal Cord Slice Preparation: The spinal cord was dissected from the mouse. Under CO2 narcosis the mouse was decapitated. The spinal column was removed and placed into cold dissection solution where the spinal cord was removed with a dissection microscope. The lumbar section of the cord was isolated and imbedded in a 3% low melting point agar (Fisher Scientific) block made in dissection solution. Transverse 400 micrometer slices were made using a Vibratone VT1000S slicing apparatus (Leica, Whetzlar, Germany). Slicing was performed in ice cold Krebs solution bubbled with 5%CO2/95%O2.
The cord slices were incubated in a solution of 1 ml of Krebs solution and 10 ul of 1-[7,8-^3H] noradrenaline in a closed environment surrounded by Krebs solution bubbled with CO2/O2 for 30 minutes. The slices were transferred into a superfusion and stimulation chamber (Warner Instruments Inc.,) where Krebs solution was allowed to perfuse over them for 30 minutes at a rate of 0.5 ml/min. The superfusion chamber thermostatically temperature controlled at 37° C. The solutions were pumped to the chamber at a constant rate of 0.5 ml/min using a Kwik-Pump 290 (Long). Following a 30 minute period for equilibration, collections were taken every 1-2.5 minutes. Ecolite scintillation fluid (15 ml) was then added to each collection vial. The samples were analyzed for radioactivity (CPM) using a Packard TRI CARB 2100 TR scintillation counter (Meriden, Conn.).
Dissection Krebs Solution (mM) NaCl 125, KCl 2.5, NaHCO3 26, NaH2PO4-H2O1.25, MgCl2 6,CaCl2 1.5, glucose 2.5. Perfusion Krebs Solution (mM) NaCl 125, KCl 2.5, NaHCO3 26, NaH2PO4—H2O 1.25, MgCl2 1,CaCl2 2, glucose 2.5.
After incubation with ^3H-norepinephrine, the cord slices were perfused with buffer for 30 minutes at 0.5 ml/minute. After equilibration, samples containing released ^3H-norepinephrine were collected at 2.5 minute intervals. After determination of baseline release, the slices were stimulated with 1 mM nicotine in the perfusion buffer.

[5] = nicotine 1 mg/kg, Thompson, 1982, cited from earlier work
[6] = system: women having pelvic surgery
Description: In a double blind, randomized trial of women having pelvic surgery with an isoflurane anesthetic, either nicotine (nasal spray, 3 mg) or saline placebo was administered just prior to emergence from anesthesia. Postoperative pain was assessed using the visual analog scale (VAS). In the VAS, patients are asked how much pain they have on a scale from 0-10 where 0 is no pain and 10 is the worst pain imaginable. All patients had access to essentially unlimited morphine in a PCA pump as is routine after this type of surgery.

mice [7] = system: mice
Text: Nicotinic acetylcholine receptors are involved in the mechanism of isoflurane hyperalgesia, and nicotinic inhibition could be the initiating event.
as §1
To test the role of muscarinic receptors for acetylcholine, mice were treated with the nonspecific muscarinic antagonist, atropine. A cholinergic neurotoxin could not be used for these studies, because removing all cholinergic neurons would have nicotinic in addition to muscarinic effects. Instead, postsynaptic muscarinic blockade was used. ACh causes analgesia, at least in part due to muscarinic stimulation (Chiari, 1999; Smith, 1989; and Lavand'homme, 1999). […] High concentrations of atropine can block nicotinic acetylcholine receptors as well (Zwart, 1997).

non-smoking volunteers = conditions: cited from earlier work
in vivo = conditions: female, mouse, plasma, 5 mg/kg
Description: as §2

NMDA = conditions: O'Dell, 1988; Papke, 2001; cited from earlier work
seizures induced by NMDA = conditions: McDonough, 1995; cited from earlier work
[8] = Qian, 1993; Badio, 1994; cited from earlier work
[9] = 3 mg intranasally, Fishbein, 2000
[10] = 3 mg intranasally, Guthrie, 1999

T1 sequence (P43681 29-627 limits assumed): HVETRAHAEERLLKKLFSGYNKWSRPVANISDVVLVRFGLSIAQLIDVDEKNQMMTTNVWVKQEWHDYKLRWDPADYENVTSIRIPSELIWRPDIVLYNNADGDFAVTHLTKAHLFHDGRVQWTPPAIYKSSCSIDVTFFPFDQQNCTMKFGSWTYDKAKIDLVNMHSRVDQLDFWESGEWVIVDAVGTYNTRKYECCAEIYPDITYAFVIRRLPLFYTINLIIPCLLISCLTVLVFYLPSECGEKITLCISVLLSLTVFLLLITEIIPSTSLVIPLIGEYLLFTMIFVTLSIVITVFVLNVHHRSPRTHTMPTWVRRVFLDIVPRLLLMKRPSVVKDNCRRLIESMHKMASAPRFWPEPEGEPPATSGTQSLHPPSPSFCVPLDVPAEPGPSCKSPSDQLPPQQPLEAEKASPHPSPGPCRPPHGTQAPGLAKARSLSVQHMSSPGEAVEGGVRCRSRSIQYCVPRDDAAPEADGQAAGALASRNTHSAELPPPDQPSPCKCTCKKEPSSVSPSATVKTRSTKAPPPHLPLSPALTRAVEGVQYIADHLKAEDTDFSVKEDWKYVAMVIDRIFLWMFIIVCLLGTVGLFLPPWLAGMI
T1 sequence (P17787 26-502): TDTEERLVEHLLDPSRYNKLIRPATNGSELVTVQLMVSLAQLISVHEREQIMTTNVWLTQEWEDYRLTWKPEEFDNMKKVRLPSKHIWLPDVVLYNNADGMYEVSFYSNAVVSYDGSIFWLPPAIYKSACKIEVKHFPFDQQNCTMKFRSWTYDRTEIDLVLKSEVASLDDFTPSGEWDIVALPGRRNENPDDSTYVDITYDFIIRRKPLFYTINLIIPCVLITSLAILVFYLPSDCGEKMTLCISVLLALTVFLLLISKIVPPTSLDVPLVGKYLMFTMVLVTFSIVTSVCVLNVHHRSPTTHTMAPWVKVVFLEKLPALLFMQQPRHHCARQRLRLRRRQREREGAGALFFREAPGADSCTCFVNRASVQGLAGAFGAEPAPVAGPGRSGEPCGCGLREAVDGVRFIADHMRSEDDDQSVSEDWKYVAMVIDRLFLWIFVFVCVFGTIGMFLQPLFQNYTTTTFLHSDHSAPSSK

CCN(CCCl)Cc1ccccc1Br [DSP4]
MHPG concentration (HPLC) ([1]; Brain Stem, control 253.3): 104.9 | HVA concentration (HPLC) ([1]; Brain Stem, control 300.1): 275.2 | DA concentration (HPLC) ([1]; Brain Stem, control 599.2): 621.0 | DOPAC concentration (HPLC) ([1]; Brain Stem, control 662.4): 494.6 | NE concentration (HPLC) ([1]; Brain Stem, control 1044.1): 811.2 | 5-HT concentration (HPLC) ([1]; Brain Stem, control 2336.9): 2140.3 | 5HIAA concentration (HPLC) ([1]; Brain Stem, control 2972.1): 2746.9 | HVA concentration (HPLC) ([1]; Medulla, control 118.5): 88.0 | DA concentration (HPLC) ([1]; Medulla, control 168.7): 138.2 | MHPG concentration (HPLC) ([1]; Medulla, control 194.5): 139.3 | DOPAC concentration (HPLC) ([1]; Medulla, control 248.3): 196.0 | 5-HT concentration (HPLC) ([1]; Medulla, control 1152.5): 1054.9 | 5HIAA concentration (HPLC) ([1]; Medulla, control 1184.1): 1302.6 | NE concentration (HPLC) ([1]; Medulla, control 1408.8): 812.0 | HVA concentration (HPLC) ([1]; Pons, control 100.7): 181.6 | DA concentration (HPLC) ([1]; Pons, control 128.1): 379.6 | MHPG concentration (HPLC) ([1]; Pons, control 235.9): 122.1 | DOPAC concentration (HPLC) ([1]; Pons, control 341.8): 345.3 | 5-HT concentration (HPLC) ([1]; Pons, control 996.8): 1597.6 | 5HIAA concentration (HPLC) ([1]; Pons, control 1334.6): 2024.7 | NE concentration (HPLC) ([1]; Pons, control 1345.9): 811.6 | HVA concentration (HPLC) ([1]; Spinal cord, control 38.2): 23.0 | MHPG concentration (HPLC) ([1]; Spinal cord, control 82.5): 62.6 | DOPAC concentration (HPLC) ([1]; Spinal cord, control 136.4): 118.8 | DA concentration (HPLC) ([1]; Spinal cord, control 182.6): 210.9 | NE concentration (HPLC) ([1]; Spinal cord, control 798.8): 587.6 | 5HIAA concentration (HPLC) ([1]; Spinal cord, control 1057.9): 1111.3 | 5-HT concentration (HPLC) ([1]; Spinal cord, control 1122.1): 808.6

CN1CCC[C@H]1c1cccnc1 [nicotine, (s)-(−)-nicotine]
time until mice lay prone (mice [2]; nicotine 1 mg/kg IP, mice not pretreated with mecamylamine): ≤ 5 min | current relative to ACh 2 μM alone in presence of isoflurane ([3]; ACh 2 μM nicotine 2 μM, given concentration of isoflurane): always larger | current relative to ACh alone ([3]; nicotine 2 μM added to ACh 2 μM): produces a larger current than ACh alone | release of ^3H-norepinephrine [4]: caused an increase in the release of ^3H-norepinephrine | detectability by HPLC at 40 minutes [5]: undetectable by HPLC at 40 minutes | peak concentration ([5]; at 5 minutes): approximately 2 μM | ill effects ([6]; nicotine nasal spray 3 mg): no severe ill effects | postoperative pain, VAS scores ([6]; nicotine nasal spray 3 mg prior to emergence vs saline placebo): significantly lower VAS scores | heart rate ([6]; nicotine nasal spray 3 mg vs placebo): higher heart rates | morphine used in the first hour (PCA pump) ([6]; nicotine nasal spray 3 mg, placebo 12 mg): 4 mg | blood pressures ([6]; with or without nicotine): not different | analgesia by ICV nicotine (mice [7]; mouse, in vivo): caused significant analgesia both in the presence and absence of isoflurane | effect of ICV nicotine on isoflurane hyperalgesia (mice [7]; mouse, in vivo): did not prevent hyperalgesia with isoflurane | protection against isoflurane hyperalgesia in presence of atropine (mice [7]; nicotine 1 mg/kg, atropine 5 mg/kg): remained protective against the hyperalgesia | effect on HPWL in DSP-4 treated mice (mice [7]; nicotine pretreatment, baseline or isoflurane): without effect | average increase in systolic blood pressure (non-smoking volunteers; [9]): 7 mM of mercury | diastolic blood pressure or heart rate (non-smoking volunteers; [9]): no change | arterial peak concentration (non-smoking volunteers; [10]): 100 µM | steady state venous concentration (non-smoking volunteers; [10]): 30 µM | time of peak effect (non-smoking volunteers; intranasal nicotine): peak effect in five minutes | time until effect is dissipated (non-smoking volunteers; intranasal nicotine): dissipated in about one hour

CN1[C@@H]2CC[C@H]1C[C@@H](OC(=O)C(CO)c1ccccc1)C2 (stereo partly drawn) [atropine]
effect on hyperalgesic response to isoflurane (mice [7]; atropine 5 mg/kg): had no effect on the hyperalgesic response to isoflurane | minimum concentration that caused baseline hyperalgesia (mice [7]; mouse, in vivo): 5 mg/kg

CNC1(C)C2CCC(C2)C1(C)C (stereo not drawn) [mecamylamine]
duration of blockade of prostration from nicotine 1 mg/kg IP (mice [2]; mecamylamine 5 mg/kg IP, tested at 1-hour intervals): up to 4 hours | mode of antagonism at heteromeric nAChRs [3]: non-competitive antagonists | IC50 ([3]; 1 mM ACh, −60 mV, room temperature, read-out: IC50 for inhibition of α4β2 nAChR): 290 ± 50 nM | interaction of mecamylamine and isoflurane applied together (isobolographic analysis) ([3]; inhibition of α4β2 nAChR activation): within the 95% confidence intervals for additivity | concentration at 1 h (in vivo; intraperitoneal): 200 ± 70 nM | concentration at 1 h (in vivo; ip): 203 nM | concentration range with NMDA antagonist properties (NMDA): ~100 µM | ED50 for inhibition of seizures induced by NMDA (seizures induced by NMDA): 12 ± 3.2 mg/kg

Clc1ccc(C2CC3CCC2N3)cn1 (stereo not drawn) [Epibatidine]
potency for analgesia relative to morphine [8]: approximately 200 times
